According to paper PMC6572064, “Discovery of 2-(1-(3-(4-Chloroxyphenyl)-3-oxo- propyl)pyrrolidine-3-yl)-1H-benzo[d]imidazole-4-carboxamide: A Potent Poly(ADP-ribose) Polymerase (PARP) Inhibitor for Treatment of Cancer” (Molecules, 2019):
Read-outs that look alike come from different tables or passages of the source.

Legend:
[1] = target: T1, PARP-2 (Homo sapiens, UniProt Q9UGN5); test: PARP-2 inhibition assay (PARP-2 Chemiluminescent Assay Kit, BPS Bioscience); type: biochemical; conditions: for inhibition at 0.01 µM: 10 nM compound
T1 construct: purchased BPS Bioscience 80552
T1 sequence (Q9UGN5 whole entry): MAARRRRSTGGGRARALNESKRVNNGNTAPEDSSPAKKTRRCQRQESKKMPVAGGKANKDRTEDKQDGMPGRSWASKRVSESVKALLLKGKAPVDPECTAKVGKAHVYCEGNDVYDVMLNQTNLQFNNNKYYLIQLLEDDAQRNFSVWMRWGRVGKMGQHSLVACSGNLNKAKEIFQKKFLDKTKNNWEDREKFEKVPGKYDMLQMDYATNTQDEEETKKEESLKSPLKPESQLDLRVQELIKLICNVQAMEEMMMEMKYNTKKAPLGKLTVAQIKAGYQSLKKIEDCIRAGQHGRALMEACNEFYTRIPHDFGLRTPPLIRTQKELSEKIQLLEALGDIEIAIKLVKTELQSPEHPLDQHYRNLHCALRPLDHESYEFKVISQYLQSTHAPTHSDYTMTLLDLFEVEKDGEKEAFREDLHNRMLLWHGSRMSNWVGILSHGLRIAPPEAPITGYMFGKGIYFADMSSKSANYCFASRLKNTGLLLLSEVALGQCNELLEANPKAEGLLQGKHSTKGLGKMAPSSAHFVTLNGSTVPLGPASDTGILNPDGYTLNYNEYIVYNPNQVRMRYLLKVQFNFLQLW
Protocol: (§1) The PARP-1 and PARP-2 inhibition assays were performed in outsourcing, by a CRO company, Shanghai Medicilon Inc. (Shanghai, China). […] Briefly, PARP-1 or PARP-2 biotinylated substrate was incubated with compounds or solvent control at varying concentrations and an assay buffer containing the PARP-1 or PARP-2 enzyme.

[2] = target: T2, PARP-1 (Homo sapiens, UniProt P09874); test: PARP-1 inhibition assay (PARP-1 Chemiluminescent Assay Kit, BPS Bioscience); type: biochemical; conditions: for inhibition at 0.01 µM: 10 nM compound
T2 construct: purchased BPS Bioscience 80569
T2 sequence (P09874 whole entry): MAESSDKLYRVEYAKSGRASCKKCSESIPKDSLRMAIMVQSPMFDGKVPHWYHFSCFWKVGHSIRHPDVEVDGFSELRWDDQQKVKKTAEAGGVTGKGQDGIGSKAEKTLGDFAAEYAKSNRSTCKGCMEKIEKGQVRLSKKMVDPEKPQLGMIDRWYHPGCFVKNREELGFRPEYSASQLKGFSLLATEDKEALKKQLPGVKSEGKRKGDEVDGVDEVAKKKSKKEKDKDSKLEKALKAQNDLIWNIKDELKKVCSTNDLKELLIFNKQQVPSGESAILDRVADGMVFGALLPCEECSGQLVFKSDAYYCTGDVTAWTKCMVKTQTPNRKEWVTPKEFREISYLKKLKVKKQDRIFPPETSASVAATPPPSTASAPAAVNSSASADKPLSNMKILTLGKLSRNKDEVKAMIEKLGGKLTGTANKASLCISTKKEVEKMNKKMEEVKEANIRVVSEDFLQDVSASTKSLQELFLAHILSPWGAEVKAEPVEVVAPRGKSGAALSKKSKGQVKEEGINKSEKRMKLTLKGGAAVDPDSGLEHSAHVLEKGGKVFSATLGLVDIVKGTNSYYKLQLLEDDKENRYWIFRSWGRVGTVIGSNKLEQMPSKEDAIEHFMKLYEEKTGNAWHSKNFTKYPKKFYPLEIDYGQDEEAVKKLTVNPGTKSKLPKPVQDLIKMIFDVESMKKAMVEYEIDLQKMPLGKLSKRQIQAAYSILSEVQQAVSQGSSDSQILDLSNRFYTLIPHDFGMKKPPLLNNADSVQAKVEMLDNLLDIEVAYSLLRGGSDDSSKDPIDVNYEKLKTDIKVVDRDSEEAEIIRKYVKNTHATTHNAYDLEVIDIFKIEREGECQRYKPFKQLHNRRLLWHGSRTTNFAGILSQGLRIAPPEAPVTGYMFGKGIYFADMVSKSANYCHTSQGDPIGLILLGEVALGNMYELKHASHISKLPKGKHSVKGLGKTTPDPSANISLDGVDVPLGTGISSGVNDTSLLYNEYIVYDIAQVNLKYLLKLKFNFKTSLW
Protocol: as §1

[3] = test system: MDA-MB-436 (a BRCA-1-mutated breast cancer cell line); test: Cell proliferation assay, three-day, CellTiter-Glo, MDA-MB-436; type: cell-based; conditions: for inhibition at 0.00508 µM / inhibition at 0.0152 µM / inhibition at 0.0457 µM / inhibition at 0.41 µM / inhibition at 1.23 µM / inhibition at 3.7 µM / inhibition at 11.11 µM / inhibition at 33.33 µM / inhibition at 100 µM / IC50: Homo sapiens; for inhibition at 0.00508 µM: MDA-MB-436, MDA-MB-436, Conc. 0.00508 uM; for inhibition at 0.0152 µM: MDA-MB-436, MDA-MB-436, Conc. 0.0152 uM; for inhibition at 0.0457 µM: MDA-MB-436, MDA-MB-436, Conc. 0.0457 uM; for inhibition at 0.41 µM: MDA-MB-436, MDA-MB-436, Conc. 0.41 uM; for inhibition at 1.23 µM: MDA-MB-436, MDA-MB-436, Conc. 1.23 uM; for inhibition at 3.7 µM: MDA-MB-436, MDA-MB-436, Conc. 3.70 uM; for inhibition at 11.11 µM: MDA-MB-436, MDA-MB-436, Conc. 11.11 uM; for inhibition at 33.33 µM: MDA-MB-436, MDA-MB-436, Conc. 33.33 uM; for inhibition at 100 µM: MDA-MB-436, MDA-MB-436, Conc. 100.00 uM
Summary of the method: (§2)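 Luminescent ATP read-out (CellTiter-Glo, 60 min at room temperature) quantified viability after a 72 h compound exposure at 37 °C, 5% CO2. Compounds, diluted from DMSO stocks into growth medium, were added to cells plated the previous day.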

[4] = test system: CAPAN-1 (a BRCA-2-mutated pancreatic cancer cell line); test: Cell proliferation assay, three-day, CellTiter-Glo, CAPAN-1; type: cell-based; conditions: for IC50 / inhibition at 0.00508 µM / inhibition at 0.0152 µM / inhibition at 0.0457 µM / inhibition at […] / inhibition at 0.41 µM / inhibition at 1.23 µM / inhibition at 3.7 µM / inhibition at 11.11 µM / inhibition at 33.33 µM / inhibition at 100 µM: Homo sapiens; for inhibition at 0.00508 µM: CAPAN-1, 0.00508 uM; for inhibition at 0.0152 µM: CAPAN-1, 0.0152 uM; for inhibition at 0.0457 µM: CAPAN-1, 0.0457 uM; for inhibition at […]: CAPAN-1, 0.14 uM; for inhibition at 0.41 µM: CAPAN-1, 0.41 uM; for inhibition at 1.23 µM: CAPAN-1, 1.23 uM; for inhibition at 3.7 µM: CAPAN-1, 3.70 uM; for inhibition at 11.11 µM: CAPAN-1, 11.11 uM; for inhibition at 33.33 µM: CAPAN-1, 33.33 uM; for inhibition at 100 µM: CAPAN-1, 100.00 uM
Summary of the method: as §2

`NC(=O)c1cccc2[nH]c(C3CCN(CCCC(=O)c4ccccc4)C3)nc12` (centres unmarked) [Compound 5cc, 2-(1-(4-Oxo-4-phenylbutyl)pyrrolidin-3-yl)-1H-benzo[d]imidazole-4-carboxamide] was tested, and the inhibition at 0.01 µM ([1]; supplement sheet, read-out: 10 nM inhibition% PAPR-2) was 62.3%, the inhibition at 0.01 µM ([1]; read-out: PARP-2 Inhibition % (10 nM)) was 62.3% and the IC50 ([1]; read-out: PARP-2 IC50) was 0.0058 µM. It also gave an IC50 ([1]; supplement sheet, read-out: IC50 PAPR-2) of 0.00576 µM, an inhibition at 0.01 µM ([2]; supplement sheet, read-out: 10 nM inhibition% PAPR-1) of 42.8% and an inhibition at 0.01 µM ([2]; read-out: PARP-1 Inhibition % (10 nM)) of 42.8%. The IC50 ([2]; read-out: PARP-1 IC50) was 0.0122 µM, the IC50 ([2]; supplement sheet, read-out: IC50 PAPR-1) was 0.0122 µM and the inhibition at 0.00508 µM ([3]; replicate 1, read-out: Inh % 1) was -5%. For the same molecule, the inhibition at 0.00508 µM ([3]; replicate 2, read-out: Inh % 2) was -0.000277%, the inhibition at 0.0152 µM ([3]; replicate 1, read-out: Inh % 1) was -5.6% and the inhibition at 0.0152 µM ([3]; replicate 2, read-out: Inh % 2) was -6.4%. The inhibition at 0.0457 µM ([3]; replicate 1, read-out: Inh % 1) was -12.8%, the inhibition at 0.0457 µM ([3]; replicate 2, read-out: Inh % 2) was -9.3% and the inhibition at 0.41 µM ([3]; replicate 1, read-out: Inh % 1) was -7.7%. The inhibition at 0.41 µM ([3]; replicate 2, read-out: Inh % 2) was -9%, the inhibition at 1.23 µM ([3]; replicate 1, read-out: Inh % 1) was -9.6% and the inhibition at 1.23 µM ([3]; replicate 2, read-out: Inh % 2) was -10.8%. The inhibition at 3.7 µM ([3]; replicate 1, read-out: Inh % 1) was -9.3%, the inhibition at 3.7 µM ([3]; replicate 2, read-out: Inh % 2) was -9.7% and the inhibition at 11.11 µM ([3]; replicate 1, read-out: Inh % 1) was -6.6%. For the same molecule, the inhibition at 11.11 µM ([3]; replicate 2, read-out: Inh % 2) was -8.1%, the inhibition at 33.33 µM ([3]; replicate 1, read-out: Inh % 1) was 62% and the inhibition at 33.33 µM ([3]; replicate 2, read-out: Inh % 2) was 38.7%. It also gave an inhibition at 100 µM ([3]; replicate 1, read-out: Inh % 1) of 99.6%, an inhibition at 100 µM ([3]; replicate 2, read-out: Inh % 2) of 99.3% and an IC50 ([3]; MDA-MB-436, 72 h, CellTiter-Glo, read-out: MDA-MB-436 IC50) of 31.9 µM. The IC50 ([3]; MDA-MB-436, 72 h, supplement Summary sheet, read-out: IC50) was 31.9 µM, the IC50 ([3]; MDA-MB-436, curve fit list, no unit in the cell, concentration in uM, read-out: IC50) was 31.9 µM and the LogIC50 ([3]; MDA-MB-436, curve fit on Log (uM) concentrations) was 1.504. For the same molecule, the Bottom ([3]; MDA-MB-436, curve fit parameter (Inh %)) was -8.27, the Top ([3]; MDA-MB-436, curve fit parameter (Inh %), '= 100.0' is a constrained value) was 100 and the LogIC50 ([4]; CAPAN-1, curve-fit output, Log (uM)) was 1.317. The IC50 ([4]; CAPAN-1, 72 h, CellTiter-Glo, read-out: CAPAN-1 IC50) was 20.7 µM, the inhibition at 0.00508 µM ([4]; replicate 1, read-out: Inh % 1) was -7.2% and the inhibition at 0.00508 µM ([4]; replicate 2, read-out: Inh % 2) was 1.2%. The inhibition at 0.0152 µM ([4]; replicate 1, read-out: Inh % 1) was 1.3%, the inhibition at 0.0152 µM ([4]; replicate 2, read-out: Inh % 2) was 4.1% and the inhibition at 0.0457 µM ([4]; replicate 1, read-out: Inh % 1) was 1.4%. It also gave an inhibition at 0.0457 µM ([4]; replicate 2, read-out: Inh % 2) of 9%, an inhibition at […] ([4]; replicate 1, read-out: Inh % 1) of 8.1% and an inhibition at […] ([4]; replicate 2, read-out: Inh % 2) of 7.4%. The inhibition at 0.41 µM ([4]; replicate 1, read-out: Inh % 1) was 22.4%, the inhibition at 0.41 µM ([4]; replicate 2, read-out: Inh % 2) was 6.9% and the inhibition at 1.23 µM ([4]; replicate 1, read-out: Inh % 1) was 18%. The inhibition at 1.23 µM ([4]; replicate 2, read-out: Inh % 2) was 5.8%, the inhibition at 3.7 µM ([4]; replicate 1, read-out: Inh % 1) was 5.7% and the inhibition at 3.7 µM ([4]; replicate 2, read-out: Inh % 2) was 1.6%. It also gave an inhibition at 11.11 µM ([4]; replicate 1, read-out: Inh % 1) of 14.5%, an inhibition at 11.11 µM ([4]; replicate 2, read-out: Inh % 2) of 8.2% and an inhibition at 33.33 µM ([4]; replicate 1, read-out: Inh % 1) of 93.8%. It also gave an inhibition at 33.33 µM ([4]; replicate 2, read-out: Inh % 2) of 86.5%, an inhibition at 100 µM ([4]; replicate 1, read-out: Inh % 1) of 100% and an inhibition at 100 µM ([4]; replicate 2, read-out: Inh % 2) of 99.5%. For the same molecule, the IC50 ([4]; CAPAN-1, 72 h, supplement Summary sheet, read-out: IC50) was 20.7 µM and the IC50 ([4]; CAPAN-1, curve-fit output, concentrations in uM, read-out: IC50) was 20.7 µM.
